Data taken from patent US20100267561A1, “HERBICIDAL PYRIDAZINONE DERIVATIVES” (priority 2007, published 2010).

How the values were obtained:
Assay type in all cases: in vivo
[1] = system: pigweed (Amaranthus retroflexus); assay: Test A pre-/postemergence plant response
Procedure, shortened: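 Ratings run 0–100 (100 = complete control), assigned visually against untreated controls roughly 10 days after treatment in a greenhouse. Compounds, formulated in non-phytotoxic solvent containing surfactant, were applied as a soil-directed preemergence spray and concurrently postemergence to one- to two-leaf plants 2–10 cm tall.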

[2] = system: winter wheat (Triticum aestivum); assay: Test C pre-/postemergence plant response
Procedure, shortened: (§1)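 Formulated in a surfactant-containing non-phytotoxic solvent, compounds were tested under controlled growth conditions as preemergence and postemergence treatments. Ratings from 0 (no effect) to 100 (complete control) were assigned visually relative to controls 15 to 25 days later.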

[3] = system: green foxtail (Setaria viridis); assay: Test C pre-/postemergence plant response
Procedure, shortened: as §1

[4] = system: wild mustard (Sinapis arvensis); assay: Test C pre-/postemergence plant response
Procedure, shortened: as §1

[5] = system: canarygrass (Phalaris minor); assay: Test C pre-/postemergence plant response
Procedure, shortened: as §1

[6] = system: winter barley (Hordeum vulgare); assay: Test C pre-/postemergence plant response
Procedure, shortened: as §1

[7] = system: annual bluegrass (Poa annua); assay: Test C pre-/postemergence plant response
Procedure, shortened: as §1

canola (Brassica rapa) = assay: Test C pre-/postemergence plant response
Procedure, shortened: as §1

[8] = system: spring barley (Hordeum vulgare); assay: Test C pre-/postemergence plant response
Procedure, shortened: as §1

[9] = system: Italian ryegrass (Lolium multiflorum); assay: Test C pre-/postemergence plant response
Procedure, shortened: as §1

[10] = system: downy bromegrass (Bromus tectorum); assay: Test C pre-/postemergence plant response
Procedure, shortened: as §1

wild oat (Avena fatua) = assay: Test C pre-/postemergence plant response
Procedure, shortened: as §1

[11] = system: spring wheat (Triticum aestivum); assay: Test C pre-/postemergence plant response
Procedure, shortened: as §1

[12] = system: windgrass (Apera spica-venti); assay: Test C pre-/postemergence plant response
Procedure, shortened: as §1

[13] = system: blackgrass (Alopecurus myosuroides); assay: Test C pre-/postemergence plant response
Procedure, shortened: as §1

[14] = system: pigweed (Amaranthus retroflexus); assay: Test C pre-/postemergence plant response
Procedure, shortened: as §1

[15] = Postemergence, 8 g ai/ha, scale 0 to 100, 0 no effect, 100 complete control
[16] = Postemergence, 16 g ai/ha, scale 0 to 100, 0 no effect, 100 complete control
[17] = Postemergence, 31 g ai/ha, scale 0 to 100, 0 no effect, 100 complete control
[18] = Postemergence, 62 g ai/ha, scale 0 to 100, 0 no effect, 100 complete control
[19] = Preemergence, 8 g ai/ha, scale 0 to 100 (0 no effect, 100 complete control)
[20] = Preemergence, 16 g ai/ha, scale 0 to 100 (0 no effect, 100 complete control)
[21] = Preemergence, 62 g ai/ha, scale 0 to 100, 0 no effect, 100 complete control
[22] = Preemergence, 31 g ai/ha, scale 0 to 100 (0 no effect, 100 complete control)

Question: Which results are given for Cc1cc(-c2ccc(C(F)(F)F)c(F)c2)nn1-c1c(O)c(C(F)(F)F)nn(C)c1=O [Compound 44]?
Answer: Plant response rating, Pigweed ([1]; Postemergence, 31 g ai/ha, 0 to 100 scale, 0 no effect, 100 complete control): 0; Plant response rating, Pigweed ([1]; Postemergence, 125 g ai/ha, 0 to 100 scale, 0 no effect, 100 complete control): 0; Plant response rating, Pigweed ([1]; Preemergence, 31 g ai/ha, 0 to 100 scale, 0 is no effect, 100 is complete control): 0; Plant response rating, Pigweed ([1]; Preemergence, 125 g ai/ha, 0 to 100 scale (0 no effect, 100 complete control)): 0; Plant response rating, Wheat, Winter [2, 15]: 75; Plant response rating, Wheat, Winter [2, 16]: 80; Plant response rating, Wheat, Winter [2, 17]: 95; Plant response rating, Wheat, Winter [2, 18]: 98; Plant response rating, Wheat, Winter [2, 19]: 40; Plant response rating, Wheat, Winter [2, 20]: 65; Plant response rating, Wheat, Winter [2, 21]: 70; Plant response rating, Foxtail, Green [3, 15]: 50; Plant response rating, Foxtail, Green [3, 16]: 95; Plant response rating, Foxtail, Green [3, 17]: 98; Plant response rating, Foxtail, Green [3, 18]: 100; Plant response rating, Foxtail, Green [3, 19]: 15; Plant response rating, Foxtail, Green [3, 20]: 90; Plant response rating, Foxtail, Green [3, 22]: 100; Plant response rating, Foxtail, Green [3, 21]: 100; Plant response rating, Mustard, Wild [4, 15]: 0; Plant response rating, Mustard, Wild [4, 16]: 0; Plant response rating, Mustard, Wild [4, 17]: 0; Plant response rating, Mustard, Wild [4, 18]: 0; Plant response rating, Mustard, Wild [4, 19]: 0; Plant response rating, Mustard, Wild [4, 20]: 0; Plant response rating, Mustard, Wild [4, 22]: 0; Plant response rating, Canarygrass [5, 15]: 75; Plant response rating, Canarygrass [5, 16]: 80; Plant response rating, Canarygrass [5, 17]: 90; Plant response rating, Canarygrass [5, 18]: 100; Plant response rating, Canarygrass [5, 19]: 30; Plant response rating, Canarygrass [5, 20]: 65; Plant response rating, Canarygrass [5, 22]: 75; Plant response rating, Canarygrass [5, 21]: 85; Plant response rating, Barley, Winter [6, 15]: 20; Plant response rating, Barley, Winter [6, 16]: 75; Plant response rating, Barley, Winter [6, 17]: 90; Plant response rating, Barley, Winter [6, 18]: 95; Plant response rating, Barley, Winter [6, 19]: 0; Plant response rating, Barley, Winter [6, 20]: 50; Plant response rating, Barley, Winter [6, 22]: 75; Plant response rating, Barley, Winter [6, 21]: 75; Plant response rating, Bluegrass [7, 15]: 0; Plant response rating, Bluegrass [7, 16]: 0; Plant response rating, Bluegrass [7, 17]: 0; Plant response rating, Bluegrass [7, 18]: 0; Plant response rating, Bluegrass [7, 19]: 0; Plant response rating, Bluegrass [7, 20]: 0; Plant response rating, Bluegrass [7, 22]: 0; Plant response rating, Bluegrass [7, 21]: 0; Plant response rating, Canola (canola (Brassica rapa); [15]): 0; Plant response rating, Canola (canola (Brassica rapa); [16]): 0; Plant response rating, Canola (canola (Brassica rapa); [17]): 0; Plant response rating, Canola (canola (Brassica rapa); [18]): 0; Plant response rating, Canola (canola (Brassica rapa); [19]): 0; Plant response rating, Canola (canola (Brassica rapa); [20]): 0; Plant response rating, Canola (canola (Brassica rapa); [22]): 0; Plant response rating, Canola (canola (Brassica rapa); [21]): 0; Plant response rating, Barley, Spring [8, 15]: 60; Plant response rating, Barley, Spring [8, 16]: 95; Plant response rating, Barley, Spring [8, 17]: 95; Plant response rating, Barley, Spring [8, 18]: 98; Plant response rating, Barley, Spring [8, 19]: 0; Plant response rating, Barley, Spring [8, 20]: 60; Plant response rating, Barley, Spring [8, 22]: 60; Plant response rating, Barley, Spring [8, 21]: 75; Plant response rating, Ryegrass, Italian [9, 15]: 90; Plant response rating, Ryegrass, Italian [9, 16]: 98; Plant response rating, Ryegrass, Italian [9, 17]: 100; Plant response rating, Ryegrass, Italian [9, 18]: 100; Plant response rating, Ryegrass, Italian [9, 19]: 90; Plant response rating, Ryegrass, Italian [9, 20]: 100; Plant response rating, Ryegrass, Italian [9, 22]: 100; Plant response rating, Ryegrass, Italian [9, 21]: 100; Plant response rating, Bromegrass, Downy [10, 15]: 15; Plant response rating, Bromegrass, Downy [10, 16]: 40; Plant response rating, Bromegrass, Downy [10, 17]: 65; Plant response rating, Bromegrass, Downy [10, 18]: 75; Plant response rating, Bromegrass, Downy [10, 19]: 0; Plant response rating, Bromegrass, Downy [10, 20]: 20; Plant response rating, Bromegrass, Downy [10, 22]: 50; Plant response rating, Bromegrass, Downy [10, 21]: 80; Plant response rating, Oat, Wild (wild oat (Avena fatua); [15]): 100; Plant response rating, Oat, Wild (wild oat (Avena fatua); [16]): 100; Plant response rating, Oat, Wild (wild oat (Avena fatua); [17]): 100; Plant response rating, Oat, Wild (wild oat (Avena fatua); [18]): 100; Plant response rating, Oat, Wild (wild oat (Avena fatua); [19]): 50; Plant response rating, Oat, Wild (wild oat (Avena fatua); [20]): 75; Plant response rating, Oat, Wild (wild oat (Avena fatua); [22]): 80; Plant response rating, Oat, Wild (wild oat (Avena fatua); [21]): 90; Plant response rating, Wheat, Spring [11, 15]: 70; Plant response rating, Wheat, Spring [11, 16]: 95; Plant response rating, Wheat, Spring [11, 17]: 95; Plant response rating, Wheat, Spring [11, 18]: 100; Plant response rating, Wheat, Spring [11, 19]: 0; Plant response rating, Wheat, Spring [11, 20]: 20; Plant response rating, Wheat, Spring [11, 22]: 70; Plant response rating, Wheat, Spring [11, 21]: 75; Plant response rating, Windgrass [12, 15]: 50; Plant response rating, Windgrass [12, 16]: 90; Plant response rating, Windgrass [12, 17]: 95; Plant response rating, Windgrass [12, 18]: 100; Plant response rating, Windgrass [12, 19]: 100; Plant response rating, Windgrass [12, 20]: 100; Plant response rating, Windgrass [12, 22]: 100; Plant response rating, Windgrass [12, 21]: 100; Plant response rating, Blackgrass [13, 15]: 90; Plant response rating, Blackgrass [13, 16]: 98; Plant response rating, Blackgrass [13, 17]: 100; Plant response rating, Blackgrass [13, 18]: 100; Plant response rating, Blackgrass [13, 20]: 25; Plant response rating, Blackgrass [13, 22]: 100; Plant response rating, Blackgrass [13, 21]: 100; Plant response rating, Pigweed [14, 15]: 0; Plant response rating, Pigweed [14, 16]: 0; Plant response rating, Pigweed [14, 17]: 0; Plant response rating, Pigweed [14, 18]: 0; Plant response rating, Pigweed [14, 19]: 0; Plant response rating, Pigweed [14, 20]: 20; Plant response rating, Pigweed [14, 22]: 20; Plant response rating, Pigweed [14, 21]: 20
